The values that follow are results of earlier work, collected in PMC7504770, “Mechanistic Insights into the Chaperoning of Human Lysosomal-Galactosidase Activity: Highly Functionalized Aminocyclopentanes and C-5a-Substituted Derivatives of 4-epi-Isofagomine” (Molecules, 2020).

The target of data set [1] is T1, β-glucosidase/β-galactosidase from Agrobacterium sp. (Abg, GH1) (Agrobacterium sp., UniProt P12614).
T1 sequence (P12614 1-459): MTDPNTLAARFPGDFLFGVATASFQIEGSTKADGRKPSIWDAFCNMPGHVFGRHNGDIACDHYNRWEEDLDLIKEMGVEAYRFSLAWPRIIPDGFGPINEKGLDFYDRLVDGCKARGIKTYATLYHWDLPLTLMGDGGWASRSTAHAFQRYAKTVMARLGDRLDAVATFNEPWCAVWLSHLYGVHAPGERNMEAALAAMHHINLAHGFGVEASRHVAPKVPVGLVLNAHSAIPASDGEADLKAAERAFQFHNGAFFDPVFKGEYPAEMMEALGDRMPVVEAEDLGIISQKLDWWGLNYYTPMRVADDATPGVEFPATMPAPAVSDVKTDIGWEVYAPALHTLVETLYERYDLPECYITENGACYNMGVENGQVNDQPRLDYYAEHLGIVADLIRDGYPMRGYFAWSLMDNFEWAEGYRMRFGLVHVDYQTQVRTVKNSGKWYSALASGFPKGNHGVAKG
Particulars: read-out: Ki Abg (β-Glc/Gal) (GH1); cited from earlier work.

Data set [2] addresses T2, human lysosomal acid β-galactosidase (GH35) (Homo sapiens, UniProt P16278).
T2 construct: Activity was measured in normal fibroblasts; endogenous in cells; host or cells: normal human skin fibroblasts (homogenate)
T2 sequence (P16278 29-677): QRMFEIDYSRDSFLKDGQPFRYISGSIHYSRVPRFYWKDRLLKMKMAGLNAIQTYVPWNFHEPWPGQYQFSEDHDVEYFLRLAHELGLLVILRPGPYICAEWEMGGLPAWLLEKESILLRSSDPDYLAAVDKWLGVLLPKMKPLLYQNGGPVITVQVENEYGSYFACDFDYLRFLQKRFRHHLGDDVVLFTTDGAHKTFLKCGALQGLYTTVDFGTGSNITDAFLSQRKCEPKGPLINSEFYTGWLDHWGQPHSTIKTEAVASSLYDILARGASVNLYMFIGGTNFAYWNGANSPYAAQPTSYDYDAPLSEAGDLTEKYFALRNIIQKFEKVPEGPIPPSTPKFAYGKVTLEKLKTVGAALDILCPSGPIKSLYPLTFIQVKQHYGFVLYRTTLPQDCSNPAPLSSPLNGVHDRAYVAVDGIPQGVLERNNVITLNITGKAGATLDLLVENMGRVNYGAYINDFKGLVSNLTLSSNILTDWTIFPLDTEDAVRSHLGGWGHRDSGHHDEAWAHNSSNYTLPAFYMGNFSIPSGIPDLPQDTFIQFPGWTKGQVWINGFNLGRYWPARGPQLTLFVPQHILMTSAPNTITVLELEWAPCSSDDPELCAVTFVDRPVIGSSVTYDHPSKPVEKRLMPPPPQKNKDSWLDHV
To be noted: read-out: β-Gal human lys. (GH35); cited from earlier work.

On to `CN(C)c1cccc2c(S(=O)(=O)NCCCCCC[C@@H]3NC[C@@H](O)[C@@H](O)[C@H]3CO)cccc12` [Compound 14], for which the Ki in data set [1] is 17.5 nM. Moreover, the IC50 in data set [2] is 380 nM.
For `CN(C)c1cccc2c(S(=O)(=O)NCCCCCCN[C@H]3[C@H](O)[C@@H](O)[C@@H](O)[C@H]3CO)cccc12` [Compound 17], in data set [1], the Ki was 1.2 nM. Besides, in data set [2], the IC50 was 400 nM.
